What was measured:
[1] = molecular target: T1, C-C chemokine receptor type 5 (Homo sapiens, UniProt P51681); assay: Inhibition of human C-C chemokine receptor type 5 assayed using [125I]-MIP-1 alpha as radioligand
HeLa [2] = assay: Anti viral activity in anti HIV-1 infectivity assay in HeLa Magi cells; assay type: functional; conditions: Homo sapiens
HeLa [3] = assay: Anti viral activity was determined in anti HIV-1 infectivity assay in HeLa Magi cells; assay type: functional, cell-based; conditions: Homo sapiens
[4] = Half life in rat; assay type: ADME, organism-based; conditions: in vivo
[5] = Volume of distribution in rat; assay type: ADME, organism-based; conditions: in vivo, read-out: Vdss
[6] = Plasma clearance in rat; assay type: ADME, organism-based; conditions: read-out: Clp
[7] = Oral bioavailability in rat; assay type: ADME, organism-based; conditions: in vivo
[8] = molecular target: T1, C-C chemokine receptor type 5; assay: Inhibitory concentration against C-C chemokine receptor type 5 using [125I]-MIP-1 alpha as radioligand

T1 sequence (P51681 whole entry): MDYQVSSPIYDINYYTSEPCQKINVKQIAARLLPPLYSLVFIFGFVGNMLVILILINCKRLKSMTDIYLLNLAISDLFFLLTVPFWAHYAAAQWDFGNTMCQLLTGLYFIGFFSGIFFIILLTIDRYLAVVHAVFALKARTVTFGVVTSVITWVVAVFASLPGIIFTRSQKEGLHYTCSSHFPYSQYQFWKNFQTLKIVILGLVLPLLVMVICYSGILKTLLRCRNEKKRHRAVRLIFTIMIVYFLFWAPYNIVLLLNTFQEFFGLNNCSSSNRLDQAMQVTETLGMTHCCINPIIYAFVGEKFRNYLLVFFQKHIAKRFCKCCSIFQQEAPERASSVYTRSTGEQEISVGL

| IC50 [1] [nM] | IC50 (HeLa [3]) [nM] | other results | SMILES |
| --- | --- | --- | --- |
| 0.29 | – | IC90 (HeLa [2]): 0.14 nM | O=C(O)[C@@H](C1CCCCC1)N1C[C@H](CN2CCC(c3cnc(Cc4ccccc4)s3)CC2)[C@@H](c2ccccc2)C1 |
| 27 | – | – | O=C(O)[C@@H](C1CCCCC1)N1C[C@H](CN2CCC(c3nocc3-c3ccccc3)CC2)[C@@H](c2ccccc2)C1 |
| 0.57 | 0.4 | – | CCc1nc(Cc2ccccc2)[nH]c1C1CCN(C[C@H]2CN([C@H](CC3CCC3)C(=O)O)C[C@@H]2c2cccc(F)c2)CC1 |
| 1.6 | 3.7 | – | O=C(O)[C@@H](CC1CC1)N1C[C@H](CN2CCC(c3cnc(Cc4ccccc4)o3)CC2)[C@@H](c2ccccc2)C1 |
| 1.3 | – | IC90 (HeLa [2]): 33 nM | O=C(O)[C@@H](C1CCCCC1)N1C[C@H](CN2CCC(c3csc(Cc4ccccc4)n3)CC2)[C@@H](c2ccccc2)C1 |
| 7 | 300 | – | CC(C)[C@H](C(=O)O)N1C[C@H](CN2CCC(c3cnc(Cc4ccccc4)[nH]3)CC2)[C@@H](c2ccccc2)C1 |
| 0.7 | 0.4 | half-life [4]: 31.8 min; Vd [5]: 1.05 L/kg; clearance [6]: 60.5 mL/min/kg; bioavailability [7]: 1.1% | O=C(O)[C@@H](CC1CC1)N1C[C@H](CN2CCC(c3[nH]c(Cc4ccccc4)nc3Cl)CC2)[C@@H](c2cccc(F)c2)C1 |
| 1 | 0.13 | half-life [4]: 50.4 min; Vd [5]: 0.54 L/kg; clearance [6]: 1.15 mL/min/kg; bioavailability [7]: 19% | CCc1nc(Cc2ccccc2)sc1C1CCN(C[C@H]2CN([C@@H](C(=O)O)C(C)C)C[C@@H]2c2cccc(F)c2)CC1 |
| 0.34 | 3.7 | – | O=C(O)[C@@H](CC1CCC1)N1C[C@H](CN2CCC(c3cnc(Cc4ccccc4)o3)CC2)[C@@H](c2ccccc2)C1 |
| 1.1 | – | IC90 (HeLa [2]): 100 nM | O=C(O)[C@@H](C1CCCCC1)N1C[C@H](CN2CCC(c3csc(-c4ccccc4)n3)CC2)[C@@H](c2ccccc2)C1 |
| 0.6 | 0.13 | – | O=C(O)[C@@H](CC1CCC1)N1C[C@H](CN2CCC(c3[nH]c(Cc4ccccc4)nc3Cl)CC2)[C@@H](c2cccc(F)c2)C1 |
| 23 | – | – | O=C(O)[C@@H](C1CCCCC1)N1C[C@H](CN2CCC(c3nc(-c4ccccc4)c[nH]3)CC2)[C@@H](c2ccccc2)C1 |
| – | – | IC50 [8]: 18.1 nM | O=C(O)[C@@H](C1CCCCC1)N1C[C@H](CN2CCC(c3cc(-c4ccccc4)no3)CC2)[C@@H](c2ccccc2)C1 |
| 3.8 | 300 | – | CC(C)[C@H](C(=O)O)N1C[C@H](CN2CCC(c3cnc(Cc4ccccc4)o3)CC2)[C@@H](c2ccccc2)C1 |
| 0.23 | 0.13 | – | O=C(O)C(CC1CC1)N1CC(c2ccccc2)[C@@H](CN2CCC(c3cnc(Cc4ccccc4)s3)CC2)C1 (some centres undefined) |
| 1.5 | – | IC90 (HeLa [2]): 100 nM | O=C(O)[C@@H](C1CCCCC1)N1C[C@H](CN2CCC(c3ncc(Cc4ccccc4)o3)CC2)[C@@H](c2ccccc2)C1 |
| 6.2 | – | IC90 (HeLa [2]): 33 nM | O=C(O)[C@@H](C1CCCCC1)N1C[C@H](CN2CCC(c3cnc(-c4ccccc4)[nH]3)CC2)[C@@H](c2ccccc2)C1 |
| 0.51 | 11 | – | CC(C)[C@H](C(=O)O)N1C[C@H](CN2CCC(c3cnc(Cc4ccccc4)s3)CC2)[C@@H](c2ccccc2)C1 |
| 0.73 | 100 | – | O=C(O)[C@@H](CC1CC1)N1C[C@H](CN2CCC(c3c[nH]c(Cc4ccccc4)n3)CC2)[C@@H](c2ccccc2)C1 |
| 0.67 | – | – | O=C(O)[C@@H](C1CCCCC1)N1C[C@H](CN2CCC(c3cnc(Cc4ccccc4)[nH]3)CC2)[C@@H](c2ccccc2)C1 |
| 2 | – | IC90 (HeLa [2]): 33 nM | O=C(O)[C@@H](C1CCCCC1)N1C[C@H](CN2CCC(c3ncc(Cc4ccccc4)s3)CC2)[C@@H](c2ccccc2)C1 |
| 0.23 | 0.13 | – | O=C(O)C(CC1CCC1)N1CC(c2ccccc2)[C@@H](CN2CCC(c3cnc(Cc4ccccc4)s3)CC2)C1 (some centres undefined) |
| 0.89 | 0.13 | – | CCc1nc(Cc2ccccc2)oc1C1CCN(C[C@H]2CN([C@H](CC3CCC3)C(=O)O)C[C@@H]2c2cccc(F)c2)CC1 |
| 0.38 | 100 | – | O=C(O)[C@@H](CC1CCC1)N1C[C@H](CN2CCC(c3c[nH]c(Cc4ccccc4)n3)CC2)[C@@H](c2ccccc2)C1 |
| 0.76 | 0.13 | – | CCc1nc(Cc2ccccc2)sc1C1CCN(C[C@H]2CN([C@H](CC3CCC3)C(=O)O)C[C@@H]2c2cccc(F)c2)CC1 |

— ChEMBL document CHEMBL1147460, “Syntheses and SAR studies of 4-(heteroarylpiperdin-1-yl-methyl)-pyrrolidin-1-yl-acetic acid antagonists of the human CCR5 chemokine receptor” (Bioorg Med Chem Lett, 2004)
